In patent US20210268101A1 (priority 2020, published 2021):
Several values for one entry are separate records, joined by “and”; a condition that tells them apart may be missing. Identical values can stand only once. Like-named read-outs stand apart in the source and are kept apart here.

Test system: Balb/c mice
Details: serum 1:50
Protocol: Serum was obtained on days 10, 19, 28 and 42. Antibodies were assayed at a 1:50 dilution on Neutravidin assay plates coated with Biotin-NP146 Biotin-NP350 or Biotin-Ova8 (controls).

| Sequence | Responders/Group Total (n = 8) (cutoff OD 0.3 (A450), Day 10) | Responders/Group Total (n = 8) (cutoff OD 0.3 (A450), Day 19) | Responders/Group Total (n = 8) (cutoff OD 0.3 (A450), Day 28) | Responders/Group Total (n = 8) (cutoff OD 0.3 (A450), Day 42) | Responders/Group Total (n = 8) (cutoff OD 0.5 (A450), Day 10) | Responders/Group Total (n = 8) (cutoff OD 0.5 (A450), Day 19) | Responders/Group Total (n = 8) (cutoff OD 0.5 (A450), Day 28) | Responders/Group Total (n = 8) (cutoff OD 0.5 (A450), Day 42) | Responders/Group Total (n = 8) (cutoff OD 1.0 (A450), Day 10) | Responders/Group Total (n = 8) (cutoff OD 1.0 (A450), Day 28) | Responders/Group Total (n = 8) (cutoff OD 1.0 (A450), Day 42) | Responders/Group Total (n = 8) (cutoff OD 1.5 (A450), Day 10) | Responders/Group Total (n = 8) (cutoff OD 1.5 (A450), Day 28) | Responders/Group Total (n = 8) (cutoff OD 1.5 (A450), Day 42) | Responders/Group Total (n = 8) (cutoff OD 1.0 (A450), Day 19) | Responders/Group Total (n = 8) (cutoff OD 1.5 (A450), Day 19) |
| --- | --- | --- | --- | --- | --- | --- | --- | --- | --- | --- | --- | --- | --- | --- | --- | --- |
| DGQEEKAGVVSTGLIGGGVILLNKHIDAYKTF [DerG-NP350] | 8 and 8/8 | 8/8 | 8/8 | 8/8 | 8 and 8/8 | 8/8 | 8/8 | 8/8 | 2/8 | 8/8 | 8/8 | 0/8 | 8/8 | 8/8 | – | – |
| DLLKNGERIEKVEGGGVILLNKHIDAYKTF [J-NP350] | – | 7/8 | 8/8 | 8/8 | – | 7/8 | 8/8 | 8/8 | 0/8 | 8/8 | 8/8 | 0/8 | 2/8 | 6 and 6/8 | 6 and 6/8 | 1/8 |
